The NIST ThermoML archive (doi:10.1021/je900974u)
± gives the expanded uncertainty stated by the source.

Experiments:
[1] = Molar enthalpy of transition or fusion; conditions: Crystal; Adiabatic calorimetry
[2] = Crystal
[3] = molar heat capacity at constant pressure; conditions: 101.33 kPa, Liquid, Vacuum adiabatic calorimetry

CCCCCCCCCCCCCCn1cc[n+](C)c1.O=S(=O)([N-]S(=O)(=O)C(F)(F)F)C(F)(F)F
Conditions	Molar enthalpy of transition or fusion [kcal/mol]	Triple point temperature [K]
[1]	9.536 ± 0.0239	–
[2]	–	308.72 ± 0.6

[3]
Conditions	molar heat capacity at constant pressure [J/K/mol]
309.98 K	896.3 ± 1.1
310.38 K	898 ± 1.1
311.13 K	898.7 ± 1.1
312.28 K	899.5 ± 1.1
312.7 K	900.9 ± 1.1
313.43 K	900.5 ± 1.1
314.58 K	902.3 ± 1.1
315.01 K	903.4 ± 1.1
315.73 K	903.4 ± 1.1
316.88 K	904.2 ± 1.1
317.32 K	905.3 ± 1.1
318.04 K	904 ± 1.1
319.19 K	906.1 ± 1.1
319.63 K	907.1 ± 1.1
320.34 K	907.5 ± 1.1
321.49 K	908.6 ± 1.1
321.94 K	909.6 ± 1.1
322.64 K	909.2 ± 1.1
323.79 K	910.6 ± 1.1
324.94 K	913.1 ± 1.1
326.1 K	913.5 ± 1.1
327.25 K	914.4 ± 1.1
328.4 K	915.1 ± 1.1
329.55 K	915.9 ± 1.1
330.69 K	918.6 ± 1.1
331.84 K	918.3 ± 1.1
332.99 K	919.1 ± 1.1
334.14 K	920.6 ± 1.1
335.29 K	922.4 ± 1.1
336.45 K	923 ± 1.1
337.6 K	924.6 ± 1.1
338.75 K	925.5 ± 1.1
339.89 K	926.2 ± 1.1
341.04 K	927.4 ± 1.1
342.19 K	927.9 ± 1.1
343.33 K	929.9 ± 1.1
344.48 K	930.4 ± 1.1
345.62 K	931.8 ± 1.1
346.77 K	933.1 ± 1.1
347.91 K	933.9 ± 1.1
349.06 K	935.2 ± 1.1
350.2 K	936.7 ± 1.1
351.91 K	939.3 ± 1.1
354.21 K	941.3 ± 1.1
356.51 K	943.4 ± 1.1
358.83 K	945.8 ± 1.1
361.14 K	947.9 ± 1.1
363.45 K	949.8 ± 1.2
365.76 K	951.8 ± 1.2
368.07 K	953.3 ± 1.2

CCCC[N+](C)(C)C.O=S(=O)([N-]S(=O)(=O)C(F)(F)F)C(F)(F)F [butyltrimethylammonium bis(trifluoromethylsulfonyl)imide]
Conditions	Molar enthalpy of transition or fusion [kcal/mol]	Triple point temperature [K]
[1]	2.725 ± 0.0239	–
[2]	–	290.23 ± 0.2

[3]
Conditions	molar heat capacity at constant pressure [J/K/mol]
278.32 K	547.5 ± 0.7
280.19 K	548.7 ± 0.8
282.06 K	549.7 ± 0.8
283.93 K	550.8 ± 0.8
285.8 K	551.9 ± 0.8
287.67 K	553 ± 0.8
289.54 K	554.1 ± 0.8
291.42 K	555.3 ± 0.8
293.29 K	556.4 ± 0.8
293.87 K	557 ± 0.8
295.16 K	557.4 ± 0.8
297.04 K	558.4 ± 0.8
298 K	559.2 ± 0.8
298.91 K	559.5 ± 0.8
300.04 K	560.4 ± 0.8
302.07 K	561.1 ± 0.8
304.14 K	563.3 ± 0.8
306.21 K	563.9 ± 0.8
308.28 K	565.4 ± 0.8
310.35 K	566.5 ± 0.8
312.42 K	568.2 ± 0.8
314.49 K	569.1 ± 0.8
316.55 K	570.3 ± 0.8
318.6 K	571.4 ± 0.8
320.67 K	573.2 ± 0.8
322.73 K	575.1 ± 0.8
324.8 K	575 ± 0.8
326.86 K	576.5 ± 0.8
328.92 K	577.2 ± 0.8
330.98 K	578.5 ± 0.8
333.04 K	580.6 ± 0.8
335.09 K	581.5 ± 0.8
337.15 K	582.9 ± 0.8
339.2 K	584.1 ± 0.8
341.26 K	585.7 ± 0.8
343.31 K	586.6 ± 0.8
345.36 K	587.7 ± 0.8
347.41 K	588.6 ± 0.8
349.46 K	590.1 ± 0.8
351.49 K	591.1 ± 0.8
353.54 K	592.1 ± 0.8
355.59 K	593.4 ± 0.8
357.65 K	594.8 ± 0.8
359.7 K	596 ± 0.8
361.76 K	597.4 ± 0.8
363.81 K	598.5 ± 0.8
365.87 K	599.8 ± 0.8
367.93 K	600.9 ± 0.8

CCCCn1cc[n+](C)c1.F[B-](F)(F)F [1-butyl-3-methylimidazolium tetrafluoroborate]
[3]
Conditions	molar heat capacity at constant pressure [J/K/mol]
189.66 K	332 ± 0.5
191.85 K	332.1 ± 0.5
194.05 K	332.1 ± 0.5
196.25 K	332.7 ± 0.5
198.46 K	332.8 ± 0.5
200.67 K	333.2 ± 0.5
202.89 K	333.7 ± 0.5
205.12 K	334 ± 0.5
207.35 K	334.5 ± 0.5
209.58 K	335 ± 0.5
211.82 K	335.5 ± 0.5
214.06 K	335.9 ± 0.5
216.3 K	336.8 ± 0.5
218.55 K	337.2 ± 0.5
220.8 K	337.8 ± 0.5
223.05 K	338.8 ± 0.5
225.31 K	339.2 ± 0.5
227.56 K	339.9 ± 0.5
229.82 K	340.4 ± 0.5
232.09 K	340.9 ± 0.5
236.62 K	342.8 ± 0.5
238.89 K	343.3 ± 0.5
241.18 K	344.4 ± 0.5
243.46 K	345.4 ± 0.5
245.73 K	345.8 ± 0.5
248.01 K	346.6 ± 0.5
250.29 K	347.5 ± 0.6
252.57 K	348.5 ± 0.6
254.85 K	349 ± 0.6
257.13 K	350.2 ± 0.6
259.41 K	351 ± 0.6
261.7 K	351.4 ± 0.6
263.98 K	352.6 ± 0.6
266.27 K	353.5 ± 0.6
268.56 K	354.6 ± 0.6
270.84 K	355.7 ± 0.6
273.13 K	356.4 ± 0.6
275.42 K	357.4 ± 0.6
277.72 K	358.3 ± 0.6
280.02 K	359.2 ± 0.6
282.31 K	360.2 ± 0.6
284.6 K	361.6 ± 0.6
286.89 K	362.1 ± 0.6
289.17 K	363.3 ± 0.6
291.46 K	364.2 ± 0.6
293.74 K	365.4 ± 0.6
296.02 K	366.3 ± 0.6
298.3 K	367 ± 0.6
300.57 K	368.2 ± 0.6
302.84 K	368.7 ± 0.6
305.11 K	370 ± 0.6
307.38 K	371.1 ± 0.6
309.64 K	372.6 ± 0.6
311.9 K	373.5 ± 0.6
314.16 K	374.2 ± 0.6
316.43 K	375.5 ± 0.6
318.69 K	376.9 ± 0.6
320.95 K	377.9 ± 0.6
323.2 K	378.9 ± 0.6
325.45 K	379.6 ± 0.6
327.7 K	381.1 ± 0.6
329.95 K	381.9 ± 0.6
332.2 K	382.6 ± 0.6
334.45 K	384.1 ± 0.6
336.69 K	384.9 ± 0.6
338.94 K	386 ± 0.6
341.18 K	387.3 ± 0.6
343.42 K	388.6 ± 0.6
345.66 K	389.8 ± 0.6
347.9 K	390.7 ± 0.6
350.14 K	391.8 ± 0.6
352.38 K	392.4 ± 0.6
354.62 K	393.9 ± 0.6
356.85 K	394.2 ± 0.6
359.08 K	395.7 ± 0.6
361.31 K	396.6 ± 0.6
363.54 K	397.9 ± 0.6
365.76 K	399 ± 0.6
367.98 K	400.1 ± 0.6
